Data reported in patent US20160353738A1, “SYNERGISTIC HERBICIDAL COMPOSITION CONTAINING PENOXSULAM, TRICLOPYR AND BISPYRIBAC” (Dow AgroSciences LLC, priority 2014, published 2016).

Legend:
[1] = tested on: Digitaria species (DIGSS); test: Postemergence herbicidal activity of mixtures in the field (rice small plots), visual weed control; assay type: in vivo; conditions: 50 g ai/ha
Source text: (§1) Bispyribac was used as Nominee® 100SC or Nominee® 400SC.
(§2) As such, Colby's equation simplifies to […]

[2] = tested on: Echinochloa colonum (L.) LINK (junglerice, ECHCO); test: as above; assay type: in vivo; conditions: 30 DAA, 52 g ai/ha
Source text: as §1, §2

[3] = tested on: Ischaemum rugosum (Saramollagrass, ISCRU); test: as above; assay type: in vivo; conditions: 50 g ai/ha
Source text: as §1, §2

[4] = tested on: Rottboellia exaltata (Guineafowlgrass, ROOEX); test: as above; assay type: in vivo; conditions: 50 g ai/ha
Source text: as §1, §2

[5] = tested on: Rice (Oryza Sativa, ORYSA); test: Safening activity to rice in the field, visual crop injury; conditions: 50 g ai/ha
Procedure: The treated plots and control plots were rated blind at various intervals after application.
Colby's equation was used to determine the herbicidal effects expected from the mixtures (Colby, S. R. Calculation of the synergistic and antagonistic response of herbicide combinations. Weeds 1967, 15, 20-22).
However, the experiments described herein were performed such that active ingredients A and B were combined and only the efficacy of the combination was determined. As such, Colby's equation simplifies to […]

With `COc1cc(OC)nc(Oc2cccc(Oc3nc(OC)cc(OC)n3)c2C(=O)[O-])n1.[Na+]` [Bispyribac-Sodium, sodium 2,6-bis((4,6-dimethoxypyrimidin-2-yl)oxy)benzoate] the “Percent (%) Visual Control” value ([1]; 6 DAA) was 93%, the “Percent (%) Visual Control” value ([1]; 17 DAA) was 88% and the “Percent (%) Visual Control” value [2] was 86.25%. For the same molecule, the “Percent (%) Visual Control” value ([3]; 6 DAA) was 0%, the “Percent (%) Visual Control” value ([3]; 12 DAA) was 30% and the “Percent (%) Visual Control” value ([3]; 16 DAA) was 46.8%. For the same molecule, the “Percent (%) Visual Control” value ([3]; 17 DAA) was 0%, the “Percent (%) Visual Control” value ([3]; 27 DAA) was 9.25% and the “Percent (%) Visual Control” value ([3]; 32 DAA) was 0%. For the same molecule, the “Percent (%) Visual Control” value ([3]; 40 DAA) was 0%, the “Percent (%) Visual Control” value ([4]; 16 DAA) was 87.3% and the “Percent (%) Visual Control” value ([4]; 32 DAA) was 69.5%. The “Percent (%) Crop Injury” value ([5]; 6 DAA) was 2.2%, the “Percent (%) Crop Injury” value ([5]; 17 DAA) was 0.9% and the “Percent (%) Crop Injury” value ([5]; 27 DAA) was 3%.
